Laboratory results reported in the supplement of paper PMC11665569.

Columns and labels:
Conditions in all cases: treatment time: 5 days
SW1573 = system: SW1573
Protocol: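 CCK-8 viability of KRAS G12C-mutant cancer cell lines transfected with control, YAP/TAZ or TEAD1-4 siRNAs and treated with KRAS G12C inhibitors for 5 days; IC50 fitted in Prism after normalising absorbance at 450 nm to vehicle control.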

MIAPACA2 = experiment: relative viability (fraction of vehicle control); higher = more viable / less inhibited
Protocol: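 CCK-8 viability of MIAPACA2 cells with empty vector or constitutively active YAP S127A, treated with KRAS G12C inhibitors for 5 days, normalised to vehicle control.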

H1373 = experiment: as above
Protocol: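 CCK-8 viability of H1373 cells with empty vector or constitutively active YAP S127A, treated with KRAS G12C inhibitors for 5 days, normalised to vehicle control.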

KYSE410 = experiment: as above
Protocol: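 CCK-8 viability of KYSE410 cells transfected with control, YAP/TAZ or TEAD1-4 siRNAs and treated with KRAS G12C inhibitors for 5 days. Values are normalised to vehicle control.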

C=C(F)C(=O)N1CCN(c2nc(OC[C@@H]3CCCN3C)nc3c2CCN(c2cccc4cccc(Cl)c24)C3)C[C@@H]1CC#N [MRTX849]
Conditions | IC50 (cell viability, 5 days) [nM] | relative viability
H1373, log10 concentration (uM): 0, ectopic expression: YAP S127A | – | 0.547
H1373, log10 concentration (uM): 0, ectopic expression: empty vector (YAP experiment) | – | 0.301
H1373, log10 concentration (uM): 0.69897, ectopic expression: YAP S127A | – | 0.0844
H1373, log10 concentration (uM): 0.69897, ectopic expression: empty vector (YAP experiment) | – | 0.0167
H1373, log10 concentration (uM): -0.30103, ectopic expression: YAP S127A | – | 0.529
H1373, log10 concentration (uM): -0.30103, ectopic expression: empty vector (YAP experiment) | – | 0.307
H1373, log10 concentration (uM): -1, ectopic expression: YAP S127A | – | 0.591
H1373, log10 concentration (uM): -1, ectopic expression: empty vector (YAP experiment) | – | 0.436
H1373, log10 concentration (uM): -1.30103, ectopic expression: YAP S127A | – | 0.578
H1373, log10 concentration (uM): -1.30103, ectopic expression: empty vector (YAP experiment) | – | 0.45
H1373, log10 concentration (uM): -2, ectopic expression: YAP S127A | – | 0.781
H1373, log10 concentration (uM): -2, ectopic expression: empty vector (YAP experiment) | – | 0.863
H1373, log10 concentration (uM): -2.30103, ectopic expression: YAP S127A | – | 0.818
H1373, log10 concentration (uM): -2.30103, ectopic expression: empty vector (YAP experiment) | – | 0.904
H1373, log10 concentration (uM): -3, ectopic expression: YAP S127A | – | 0.938
H1373, log10 concentration (uM): -3, ectopic expression: empty vector (YAP experiment) | – | 1.07
H1373, log10 concentration (uM): -4, ectopic expression: YAP S127A | – | 1.01
H1373, log10 concentration (uM): -4, ectopic expression: empty vector (YAP experiment) | – | 0.995
KYSE410, log10 concentration (uM): 0, siRNA knockdown: TEAD1-4 siRNA 1 | – | 0.319
KYSE410, log10 concentration (uM): 0, siRNA knockdown: TEAD1-4 siRNA 2 | – | 0.212
KYSE410, log10 concentration (uM): 0, siRNA knockdown: YAP/TAZ siRNA 1 | – | 0.273
KYSE410, log10 concentration (uM): 0, siRNA knockdown: YAP/TAZ siRNA 2 | – | 0.298
KYSE410, log10 concentration (uM): 0, siRNA knockdown: negative control siRNA | – | 0.646
KYSE410, log10 concentration (uM): 0.69897, siRNA knockdown: TEAD1-4 siRNA 1 | – | 0.0217
KYSE410, log10 concentration (uM): 0.69897, siRNA knockdown: TEAD1-4 siRNA 2 | – | 0.0146
KYSE410, log10 concentration (uM): 0.69897, siRNA knockdown: YAP/TAZ siRNA 1 | – | 0.00876
KYSE410, log10 concentration (uM): 0.69897, siRNA knockdown: YAP/TAZ siRNA 2 | – | 0.00963
KYSE410, log10 concentration (uM): 0.69897, siRNA knockdown: negative control siRNA | – | 0.0324
KYSE410, log10 concentration (uM): -0.30103, siRNA knockdown: TEAD1-4 siRNA 1 | – | 0.419
KYSE410, log10 concentration (uM): -0.30103, siRNA knockdown: TEAD1-4 siRNA 2 | – | 0.317
KYSE410, log10 concentration (uM): -0.30103, siRNA knockdown: YAP/TAZ siRNA 1 | – | 0.381
KYSE410, log10 concentration (uM): -0.30103, siRNA knockdown: YAP/TAZ siRNA 2 | – | 0.395
KYSE410, log10 concentration (uM): -0.30103, siRNA knockdown: negative control siRNA | – | 0.715
KYSE410, log10 concentration (uM): -1, siRNA knockdown: TEAD1-4 siRNA 1 | – | 0.582
KYSE410, log10 concentration (uM): -1, siRNA knockdown: TEAD1-4 siRNA 2 | – | 0.45
KYSE410, log10 concentration (uM): -1, siRNA knockdown: YAP/TAZ siRNA 1 | – | 0.481
KYSE410, log10 concentration (uM): -1, siRNA knockdown: YAP/TAZ siRNA 2 | – | 0.445
KYSE410, log10 concentration (uM): -1, siRNA knockdown: negative control siRNA | – | 0.788
KYSE410, log10 concentration (uM): -1.30103, siRNA knockdown: TEAD1-4 siRNA 1 | – | 0.704
KYSE410, log10 concentration (uM): -1.30103, siRNA knockdown: TEAD1-4 siRNA 2 | – | 0.572
KYSE410, log10 concentration (uM): -1.30103, siRNA knockdown: YAP/TAZ siRNA 1 | – | 0.559
KYSE410, log10 concentration (uM): -1.30103, siRNA knockdown: YAP/TAZ siRNA 2 | – | 0.525
KYSE410, log10 concentration (uM): -1.30103, siRNA knockdown: negative control siRNA | – | 0.814
MIAPACA2, log10 concentration (uM): 0, ectopic expression: YAP S127A | – | 0.696
MIAPACA2, log10 concentration (uM): 0, ectopic expression: empty vector (YAP experiment) | – | 0.0786
MIAPACA2, log10 concentration (uM): 0.69897, ectopic expression: YAP S127A | – | 0.15
MIAPACA2, log10 concentration (uM): 0.69897, ectopic expression: empty vector (YAP experiment) | – | 0.0127
MIAPACA2, log10 concentration (uM): -0.30103, ectopic expression: YAP S127A | – | 0.687
MIAPACA2, log10 concentration (uM): -0.30103, ectopic expression: empty vector (YAP experiment) | – | 0.0877
MIAPACA2, log10 concentration (uM): -1, ectopic expression: YAP S127A | – | 0.902
MIAPACA2, log10 concentration (uM): -1, ectopic expression: empty vector (YAP experiment) | – | 0.217
MIAPACA2, log10 concentration (uM): -1.30103, ectopic expression: YAP S127A | – | 0.924
MIAPACA2, log10 concentration (uM): -1.30103, ectopic expression: empty vector (YAP experiment) | – | 0.309
MIAPACA2, log10 concentration (uM): -2, ectopic expression: YAP S127A | – | 0.979
MIAPACA2, log10 concentration (uM): -2, ectopic expression: empty vector (YAP experiment) | – | 0.917
MIAPACA2, log10 concentration (uM): -2.30103, ectopic expression: YAP S127A | – | 1.01
MIAPACA2, log10 concentration (uM): -2.30103, ectopic expression: empty vector (YAP experiment) | – | 0.986
MIAPACA2, log10 concentration (uM): -3, ectopic expression: YAP S127A | – | 1.06
MIAPACA2, log10 concentration (uM): -3, ectopic expression: empty vector (YAP experiment) | – | 0.964
MIAPACA2, log10 concentration (uM): -4, ectopic expression: YAP S127A | – | 0.993
MIAPACA2, log10 concentration (uM): -4, ectopic expression: empty vector (YAP experiment) | – | 0.997
SW1573, siRNA knockdown (Con = control): Con | 926 | –
SW1573, siRNA knockdown (Con = control): TEAD1234_si1 | 7.3 | –
SW1573, siRNA knockdown (Con = control): TEAD1234_si2 | 4.3 | –
